From US6569860B2, “Alkoxycarbonylamino heteroaryl carboxylic acid derivatives as IP antagonists” (Roćhe Palo Alto LLC, priority 2001, dated 2003)

First: O=C(Nc1cnccc1C(=O)O)OCc1cc2cc(-c3ccccc3)ccc2o1 [Example 3, 3-(5-Phenyl-benzofuran-2-ylmethoxycarbonylamino)-isonicotinic Acid]
Second: O=C(Nc1nn(-c2ccccc2)cc1C(=O)O)OCc1cc2cc(-c3ccccc3)ccc2o1 [Example 2, 1-Phenyl-3-(5-phenyl-benzofuran-2-ylmethoxycarbonylamino)-1H-pyrazole-4-carboxylic Acid]
The melting point of the first is higher: 235.7 to 238.9 °C for the first, 220.6 to 220.8 °C for the second.

O=C(Nc1cnc(-c2ccccc2)nc1C(=O)O)OCc1cc2cc(-c3ccccc3)ccc2o1 [Example 1, 2-Phenyl-5-(5-phenyl-benzofuran-2-ylmethoxycarbonylamino)-pyrimidine-4-carboxylic Acid] gave a melting point of 184 to 185 °C.
